Test results as given in patent US20210255184A1, “Biosensor Device and Methods” (The New Zealand Institute for Plant and Food Research …, priority 2018, published 2021).

Legend:
Or22a = molecular target: T1, Or22a (Drosophila melanogaster, UniProt P81909); test: Droplet interface bilayer ion channel recording, Or22a only; type: biochemical; details: DIB, 10 μM ligand, holding potential +/−150, +/−100, +/−50 mV
T1 construct: his-tag; made in house; host or cells: baculovirus-infected Sf9 cells
T1 sequence (P81909 1-397): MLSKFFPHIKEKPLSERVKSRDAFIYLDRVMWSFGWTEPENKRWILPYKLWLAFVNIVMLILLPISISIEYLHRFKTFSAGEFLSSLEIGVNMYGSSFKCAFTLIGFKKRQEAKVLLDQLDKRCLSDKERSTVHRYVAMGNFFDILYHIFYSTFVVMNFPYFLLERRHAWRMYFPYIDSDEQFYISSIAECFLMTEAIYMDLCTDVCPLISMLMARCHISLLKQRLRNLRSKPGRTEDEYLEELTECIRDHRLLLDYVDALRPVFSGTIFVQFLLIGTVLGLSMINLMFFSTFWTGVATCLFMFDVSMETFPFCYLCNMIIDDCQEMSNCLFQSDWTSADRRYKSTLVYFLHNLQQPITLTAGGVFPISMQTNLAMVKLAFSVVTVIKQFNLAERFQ
Experimental: Bilayers were formed between two droplets formed within a PMMA chamber filled with 1 mg/ml DPhPC in undecane and AR20 silicone oil (1:1 ratio). The first step in this process was to deposit a 50 nl droplet onto the stationary silver electrode positioned at the base of the well; this droplet consisted of an aqueous solution containing 300 mM NaCl, 10 mM HEPES (pH 7.4), containing the odorant receptor proteins in proteoliposomes (at a 1:20 dilution from the proteoliposome preparation), […] The second droplet was mounted onto a second silver electrode which was held in the oil and lipid mixture using a YOU-3 manipulator (Narishige, Japan). […] Once the droplets were in contact a bilayer formed spontaneously within 1 minute (as determined by visual assessment and an increase in the bilayer capacitance as measured with a capacitance voltage protocol using the Pico2 amplifier). Insertion of an active channel was determined by a change in current while clamping the voltage at 50 mV. […]
Currents were recorded with a Pico2 or an eONE-HS amplifier (Tecella, USA and Elements, Italy, respectively) with built-in digitizers, operating in gap-free acquisition mode at a sampling frequency of 20 kHz, and using a 0.8 or 1.5 kHz low pass filter. […]
Data were analysed using ANA (Dr Pusch, Genoa), EDR (Elements, Italy) and WinWCP (Dr Dempster, University of Strathclyde). […]

Or10a = molecular target: T2, Or10a (Drosophila melanogaster, UniProt Q9VYZ1); test: GFET sensor, Or10a liposomes; type: biochemical; details: Table 4, GFET
T2 construct: his-tag; made in house; host or cells: baculovirus-infected Sf9 cells
T2 sequence (Q9VYZ1 1-406): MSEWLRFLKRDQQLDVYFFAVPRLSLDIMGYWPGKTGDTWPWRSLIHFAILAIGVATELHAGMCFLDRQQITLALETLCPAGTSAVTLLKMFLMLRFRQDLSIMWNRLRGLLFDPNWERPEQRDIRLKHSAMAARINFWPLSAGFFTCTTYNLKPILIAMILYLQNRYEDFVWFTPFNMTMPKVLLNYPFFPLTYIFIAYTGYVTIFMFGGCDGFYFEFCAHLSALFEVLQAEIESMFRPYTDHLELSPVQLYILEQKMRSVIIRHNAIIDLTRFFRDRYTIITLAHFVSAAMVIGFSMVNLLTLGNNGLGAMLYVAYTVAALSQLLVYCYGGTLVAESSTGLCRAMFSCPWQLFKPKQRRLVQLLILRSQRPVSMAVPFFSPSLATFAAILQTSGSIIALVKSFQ
From the text: The GFETs used in this study were fabricated from a predeposited graphene film on 300 nm SiO2 coated Si substrate from ACS Suppliers, USA. The FETs consist of a channel with dimensions of 100 μm width and […]. The key steps involved in fabricating the GFET on a Si/SiO2 substrate is schematically illustrated in FIG. 12. The source and drain electrodes were defined by photolithography and formed by successive deposition of Cr and Au. Both the drain and source electrodes were then encapsulated using AZ1518 photoresist and a channel with dimensions of 100 μm width and 10 μm length was left open to the environment for gating and functionalisation.
The OR liposomes were functionalised onto the graphene surface via a non-covalent route using PBASE as the molecular linker as shown in FIG. 13. The OR liposomes were diluted at 1:10 ratio with 1×PBS (pH7.4). The cleaned GFETs were immersed in 1 mM PBASE solution in methanol for 1 hour. […]
Electrical sensor measurements of OR liposome functionalised GFETs were carried out using top liquid gate morphology as shown in the schematic in FIG. 15 (a). […] The transfer characteristics of the different graphene FETs (FIG. 15 (b) to (g)) were measured at Vds=1 mV while the liquid gate voltage Vlg was swept from −0.5 V to 1 V with an interval of 20 mV. […]

CCCCCC(=O)OC [methyl hexanoate]
ion channel activity (Or22a): No ion channel activity

COC(=O)c1ccccc1O [methyl salicylate]
Detection Range (Or10a): 10^−12 to 10^−8 M | EC50 (Or10a): 0.0156 nM
